Results taken from patent US8119168B2, “Personal care compositions comprising a zinc containing material in an aqueous surfactant composition” (The Procter & Gamble Company, priority 2002, dated 2012).

Experiment: Relative zinc lability by xylenol orange (XO) color change, absorbance at 572 nm
Type: physicochemical
Conditions: 6% sodium lauryl sulfate
Method: Zinc lability is a measure of the chemical availability of zinc ion. […] The use of partially soluble forms of zinc salts and/or incorporation in a matrix with potential complexants generally lowers the zinc lability substantially below the defined 100% maximum.
Zinc lability is assessed by combining a diluted zinc-containing solution or dispersion with the metallochromic dye xylenol orange (XO) and measurement of the degree of color change under specified conditions. The magnitude of color formation is proportional to the level of labile zinc. The procedure developed has been optimized for aqueous surfactant formulations but may be adapted to other physical product forms as well.
A spectrophotometer is used to quantify the color change at 572 nm, the wavelength of optimum color change for XO. The spectrophotometer is set to zero absorbance at 572 nm utilizing a product control as close in composition to the test product except excluding the potentially labile form of zinc. The control and test products are then treated identically as follows. A 50 μl product sample is dispensed into a jar and 95 ml of deaerated, distilled water are added and stirred. 5 mL of a 23 mg/mL xylenol orange stock solution at pH 5.0 is pipetted into the sample jar; this is considered time 0. The pH is then adjusted to 5.50±0.01 using dilute HCl or NaOH. After 10.0 minutes, a portion of the sample is filtered (0.45μ) and the absorbance measured at 572 nm. The measured absorbance is then compared to a separately measured control to determine the relative zinc lability (zero TO 100%). The 100% lability control is prepared in a matrix similar to the test products but utilizing a soluble zinc material (such as zinc sulfate) incorporated at an equivalent level on a zinc basis. The absorbance of the 100% lability control is measured as above for the test materials.

Molecule	Relative Zinc Lability (%) Simple Surfactant System Alone [%]
O=C([O-])[O-].O=C([O-])[O-].[OH-].[OH-].[OH-].[OH-].[OH-].[OH-].[Zn+2].[Zn+2].[Zn+2].[Zn+2].[Zn+2] [Hydrozincite]	37.0
[O]=[Zn] [Zinc Oxide]	1.5

Same assay, conditions: 6% sodium lauryl sulfate plus sodium bicarbonate at 0.2% level

Molecule	Relative Zinc Lability (%) Simple Surfactant System Plus Sodium Bicarbonate [%]
[O]=[Zn] [Zinc Oxide]	33.2

Experiment: Zincon metallochromic dye test for available Zn^2+ (visual color change orange to blue)
Type: physicochemical
Conditions: ZCM ~30 mg/10 ml water, pH 7-11, binary visual assessment
Source text: Zinc-containing materials (ZCMs) differ with respect to how strongly the zinc ion (Zn^2+) is held by counterions in the crystal lattice. The benefits discussed herein depend upon having available Zn^2+. […] The response is a binary visual assessment of whether or not the color changes indicating zinc-binding.
The method is based on the commercial metallochromic dye zincon. Zincon changes from an orange color to blue upon binding zinc and provides the basis for detecting available Zn^2+:
The specific procedure involves making a stock solution of zincon in ethanol (˜50 mg/10 ml ethanol). The ZCM is then added to water (˜30 mg/10 ml water) and agitated (pH range should be 7-11). Three to four drops of zincon solution are then added to the ZCM in water, agitated and a visual assessment of color change made.

Molecule	available Zn^2+ (zincon color change)
[O]=[Zn] [Zinc Oxide]	have available zinc
O=C([O-])CN(CCN(CC(=O)[O-])CC(=O)[O-])CC(=O)[O-].[Na+].[Na+].[Zn+2] [zinc EDTA]	not having available Zn^2+
CC(=O)[O-].CC(=O)[O-].[Zn+2] [zinc acetate]	have available zinc
N=C(N)NCCC[C@H](N)C(=O)O.[Zn] [zinc arginine]	have available zinc
[Cl-].[Cl-].[Zn+2] [zinc chloride]	have available zinc
O=C([O-])CC(O)(CC(=O)[O-])C(=O)[O-].O=C([O-])CC(O)(CC(=O)[O-])C(=O)[O-].[Zn+2].[Zn+2].[Zn+2] [zinc citrate]	have available zinc
[OH-].[OH-].[Zn+2] [zinc hydroxide]	have available zinc
CC(O)C(=O)[O-].CC(O)C(=O)[O-].[Zn+2] (stereo not drawn) [zinc lactate]	have available zinc
OCC(O)CO.[Zn] [zinc monoglycerolate]	have available zinc
O=C([O-])C(=O)[O-].[Zn+2] [zinc oxalate]	have available zinc
O=S(=O)([O-])[O-].[Zn+2] [zinc sulfate]	have available zinc
zinc hexaborate	have available zinc
zinc histadine	have available zinc
zinc phytate	not having available Zn^2+
zinc stearate	have available zinc
